Measurements from PubChem BioAssay AID312 (DTP/NCI, 2004).
Several values for one entry are separate records, joined by “and”; a condition that tells them apart may be missing. Equal values may be shown once. Toxic doses and inconclusive results are not listed.

Test system: BDF1 mice, C1498 leukemia ip, median survival T/C
Experiment: NCI In Vivo Anticancer Drug Screen. Data for tumor model C1498 Myeloid Leukemia (intraperitoneal) in B6D2F1 (BDF1) mice
Conditions: endpoint: median survival time, schedule: Q01DX010 (ip), higher = longer survival
Method: The antitumor activity of compounds was measured in mice bearing transplantable tumors. Survival or tumor size were measured and the results are expressed as the measurement made in the treated group (T) divided by the measurement made in the vehicle treated control group (C). The tumor model used in this assay is C1498 Myeloid Leukemia (intraperitoneal) in B6D2F1 (BDF1) mice

[1] = dose: 6.25 mg/kg/injection, vehicle: saline
[2] = dose: 12.5 mg/kg/injection, vehicle: saline
[3] = dose: 25.0 mg/kg/injection, vehicle: saline
[4] = dose: 50.0 mg/kg/injection, vehicle: saline
[5] = dose: 100.0 mg/kg/injection, vehicle: saline
[6] = dose: 5.0 mg/kg/injection, vehicle: saline
[7] = dose: 10.0 mg/kg/injection, vehicle: saline
[8] = dose: 20.0 mg/kg/injection, vehicle: saline
[9] = dose: 200.0 mg/kg/injection, vehicle: saline

Question: Which T/C (dose: 4.0 mg/kg/injection, vehicle: saline) does the source give for CC(CCC(C)OS(C)(=O)=O)OS(C)(=O)=O (stereo not given) here?
Answer: 109 % of control

Question: And the T/C (dose: 8.0 mg/kg/injection, vehicle: saline)?
Answer: 95 % of control

Question: And the T/C (dose: 16.0 mg/kg/injection, vehicle: saline)?
Answer: 100 % of control

Question: And the T/C (dose: 32.0 mg/kg/injection, vehicle: saline)?
Answer: 104 % of control

Question: CS(=O)(=O)OCCN(CCOS(C)(=O)=O)c1ccc(N=O)cc1 was tested. Which T/C (dose: 0.25 mg/kg/injection, vehicle: saline) did it give?
Answer: 122 % of control

Question: Which T/C [1] does the source give for CS(=O)(=O)OCCC(=O)N1CCN(C(=O)CCOS(C)(=O)=O)CC1 here?
Answer: 100 % of control and 105 % of control

Question: And the T/C [2]?
Answer: 100 % of control and 110 % of control and 118 % of control

Question: What about the T/C [3] of the same compound?
Answer: 108 % of control and 109 % of control and 110 % of control

Question: What about the T/C [4] of the same compound?
Answer: 104 % of control and 109 % of control

Question: And the T/C [5]?
Answer: 109 % of control

Question: What does the source list for COc1cc2c(c3c1c(=O)c1ccccc1n3C)C=CC(C)(C)O2?
Answer: T/C (dose: 6.25 mg/kg/injection, vehicle: other): 100 % of control; T/C (dose: 12.5 mg/kg/injection, vehicle: other): 107 % of control; T/C (dose: 25.0 mg/kg/injection, vehicle: other): 103 % of control; T/C (dose: 50.0 mg/kg/injection, vehicle: other): 119 % of control; T/C (dose: 100.0 mg/kg/injection, vehicle: other): 100 % of control

Question: What does the source list for O[C@H](CN1CC1)[C@@H](O)CN1CC1?
Answer: T/C (dose: 62.5 micrograms/kg/injection, vehicle: saline): 123 % of control; T/C (dose: 500.0 micrograms/kg/injection, vehicle: saline): 173 % of control

Question: With O=[n+]1c2c(n([O-])c3ccccc31)-c1cccc3cccc-2c13 as the compound, how does the T/C (dose: 3.13 mg/kg/injection, vehicle: saline) read?
Answer: 90 % of control

Question: And the T/C [1]?
Answer: 90 % of control

Question: What about the T/C [2] of the same compound?
Answer: 90 % of control

Question: And the T/C [3]?
Answer: 90 % of control

Question: S=P(N1CCOCC1)(N1CC1)N1CC1 was tested. Which T/C (dose: 2.5 mg/kg/injection, vehicle: saline) did it give?
Answer: 95 % of control and 104 % of control

Question: What about the T/C [6] of the same compound?
Answer: 95 % of control and 100 % of control

Question: And the T/C [7]?
Answer: 100 % of control and 104 % of control

Question: And the T/C [8]?
Answer: 104 % of control

Question: How did the T/C (dose: 7.5 mg/kg/injection, vehicle: saline) turn out when CN(C)[C@@H]1C(=O)C(C(N)=O)=C(O)[C@@]2(O)C(=O)C3=C(O)c4c(O)cccc4C[C@H]3C[C@@H]12 was run?
Answer: 105 % of control and 116 % of control

Question: What about the T/C (dose: 15.0 mg/kg/injection, vehicle: saline) of the same compound?
Answer: 110 % of control and 112 % of control

Question: What about the T/C (dose: 30.0 mg/kg/injection, vehicle: saline) of the same compound?
Answer: 95 % of control

Question: And the T/C (dose: 60.0 mg/kg/injection, vehicle: saline)?
Answer: 95 % of control

Question: CC(=O)Nc1ccc2nc3ccc(NC(C)=O)cc3[n+](-c3ccccc3)c2c1 was tested. Which T/C [3] did it give?
Answer: 107 % of control

Question: What about the T/C [4] of the same compound?
Answer: 96 % of control

Question: What about the T/C [5] of the same compound?
Answer: 88 % of control

Question: And the T/C [9]?
Answer: 88 % of control

Question: Which T/C [3] does the source give for CCN(CC)CCNc1ccc(C)c2sc3ccccc3c(=O)c12 here?
Answer: 113 % of control and 118 % of control

Question: And the T/C [4]?
Answer: 118 % of control and 122 % of control

Question: What about the T/C [5] of the same compound?
Answer: 159 % of control and 172 % of control

Question: With CC(=O)NC1=C(N2CC2)C(=O)C(NC(C)=O)=C(N2CC2)C1=O as the compound, how does the T/C (dose: 0.13 mg/kg/injection, vehicle: saline) read?
Answer: 108 % of control

Question: And the T/C (dose: 125.0 micrograms/kg/injection, vehicle: saline)?
Answer: 104 % of control

Question: What about the T/C (dose: 250.0 micrograms/kg/injection, vehicle: saline) of the same compound?
Answer: 109 % of control and 116 % of control

Question: With COc1cc(-c2ccc(Nc3ccccc3C(=O)O)c(OC)c2)ccc1N as the compound, how does the T/C [6] read?
Answer: 100 % of control

Question: And the T/C [7]?
Answer: 95 % of control and 100 % of control

Question: And the T/C [8]?
Answer: 100 % of control and 105 % of control

Question: And the T/C (dose: 40.0 mg/kg/injection, vehicle: saline)?
Answer: 118 % of control

Question: Which T/C (dose: 36.0 mg/kg/injection, vehicle: saline) does the source give for CN(C)c1ccc(Nc2c3ccccc3nc3ccccc23)cc1 here?
Answer: 118 % of control

Question: And the T/C (dose: 120.0 mg/kg/injection, vehicle: saline)?
Answer: 86 % of control

Question: Which results are given for Cc1cc2nc3c(=O)[nH]c(=O)nc-3n(CC(O)C(O)C(O)C(O)CO)c2cc1C (stereo not given)?
Answer: T/C [3]: 100 % of control; T/C [4]: 100 % of control; T/C [5]: 95 % of control; T/C [9]: 91 % of control; T/C (dose: 400.0 mg/kg/injection, vehicle: saline): 87 % of control
